Reference: ChEMBL document CHEMBL3885861, “Open TG-GATES”

Species on record: Rattus norvegicus
Assay: Open TG-GATES - Regimen: Single
Type: toxicity, organism-based, Sprague-Dawley
Design: regimen Single, gender Male, age 6 weeks
Details: in vivo, po, 100 mg/kg, route gavage, dose level Low; for APTT / Bas / Eos / Fbg / Hb / Ht / Lym / MCH / MCHC / MCV / Mono / Neu / PT / Plat / RBC / Ret / WBC: tissue Blood; for KIDNEY_L / KIDNEY_R / KIDNEY_TOTAL: tissue Kidney; for LIVER: tissue Liver; for A/G / ALP / ALT / AST / BUN / CRE / Ca / Cl / DBIL / GLC / IP / K / LDH / Na / PL / RALB / TBIL / TC / TG / TP / gamma-GTP: tissue Plasma

Question: Which TERMINAL_BW (3 h) does the source give for CCC1(c2ccccc2)C(=O)NC(=O)NC1=O [PHENOBARBITAL] here?
Answer: 225.5 g

Question: And the APTT (3 h)?
Answer: 20.6 s

Question: And the Bas (3 h)?
Answer: 0%

Question: What about the Eos (3 h) of the same molecule?
Answer: 1%

Question: What about the Fbg (3 h) of the same molecule?
Answer: 220.6 mg/dL

Question: What about the Hb (3 h) of the same molecule?
Answer: 13.7 g/dL

Question: And the Ht (3 h)?
Answer: 37.8%

Question: What about the Lym (3 h) of the same molecule?
Answer: 76.6%

Question: What about the MCH (3 h) of the same molecule?
Answer: 22.2 pg

Question: What about the MCHC (3 h) of the same molecule?
Answer: 36.1%

Question: And the MCV (3 h)?
Answer: 61.3 fL

Question: What about the Mono (3 h) of the same molecule?
Answer: 3.4%

Question: And the Neu (3 h)?
Answer: 18.2%

Question: What about the PT (3 h) of the same molecule?
Answer: 12 s

Question: And the Plat (3 h)?
Answer: 126.2 x10_4/uL

Question: What about the RBC (3 h) of the same molecule?
Answer: 616.6 x10_4/ul

Question: What about the Ret (3 h) of the same molecule?
Answer: 7.8%

Question: And the WBC (3 h)?
Answer: 85.2 x10_2/uL

Question: And the KIDNEY_L (3 h)?
Answer: 1 g

Question: What about the KIDNEY_R (3 h) of the same molecule?
Answer: 1 g

Question: And the KIDNEY_TOTAL (3 h)?
Answer: 2.1 g

Question: And the LIVER (3 h)?
Answer: 10.1 g

Question: And the A/G (3 h)?
Answer: 1.6

Question: What about the ALP (3 h) of the same molecule?
Answer: 991 IU/L

Question: What about the ALT (3 h) of the same molecule?
Answer: 33.4 IU/L

Question: What about the AST (3 h) of the same molecule?
Answer: 67.4 IU/L

Question: And the BUN (3 h)?
Answer: 8.4 mg/dL

Question: And the CRE (3 h)?
Answer: 0.3 mg/dL

Question: What about the Ca (3 h) of the same molecule?
Answer: 10.7 mg/dL

Question: And the Cl (3 h)?
Answer: 101.4 meq/L

Question: And the DBIL (3 h)?
Answer: 0.064 mg/dL

Question: And the GLC (3 h)?
Answer: 179.4 mg/dL

Question: And the IP (3 h)?
Answer: 9.7 mg/dL

Question: What about the K (3 h) of the same molecule?
Answer: 4.4 meq/L

Question: What about the LDH (3 h) of the same molecule?
Answer: 168.4 IU/L

Question: What about the Na (3 h) of the same molecule?
Answer: 139.8 meq/L

Question: And the PL (3 h)?
Answer: 156.6 mg/dL

Question: What about the RALB (3 h) of the same molecule?
Answer: 3.3 g/dL

Question: What about the TBIL (3 h) of the same molecule?
Answer: 0.1 mg/dL

Question: What about the TC (3 h) of the same molecule?
Answer: 83.4 mg/dL

Question: What about the TG (3 h) of the same molecule?
Answer: 83.8 mg/dL

Question: What about the TP (3 h) of the same molecule?
Answer: 5.3 g/dL

Question: What about the gamma-GTP (3 h) of the same molecule?
Answer: 1 IU/L

Question: And the TERMINAL_BW (6 h)?
Answer: 222.4 g

Question: What about the APTT (6 h) of the same molecule?
Answer: 18 s

Question: And the Bas (6 h)?
Answer: 0.2%

Question: And the Eos (6 h)?
Answer: 0.8%

Question: And the Fbg (6 h)?
Answer: 237.8 mg/dL

Question: And the Hb (6 h)?
Answer: 13.7 g/dL

Question: And the Ht (6 h)?
Answer: 37.9%

Question: And the Lym (6 h)?
Answer: 79.8%

Question: What about the MCH (6 h) of the same molecule?
Answer: 21.4 pg

Question: What about the MCHC (6 h) of the same molecule?
Answer: 36.2%

Question: And the MCV (6 h)?
Answer: 59 fL

Question: What about the Mono (6 h) of the same molecule?
Answer: 3.4%

Question: What about the Neu (6 h) of the same molecule?
Answer: 15%

Question: What about the PT (6 h) of the same molecule?
Answer: 11.8 s

Question: And the Plat (6 h)?
Answer: 124.2 x10_4/uL

Question: And the RBC (6 h)?
Answer: 643 x10_4/ul

Question: And the Ret (6 h)?
Answer: 8.1%

Question: And the WBC (6 h)?
Answer: 90.7 x10_2/uL

Question: And the KIDNEY_L (6 h)?
Answer: 1 g

Question: And the KIDNEY_R (6 h)?
Answer: 0.9 g

Question: What about the KIDNEY_TOTAL (6 h) of the same molecule?
Answer: 1.9 g

Question: What about the LIVER (6 h) of the same molecule?
Answer: 9.4 g

Question: What about the A/G (6 h) of the same molecule?
Answer: 1.6

Question: What about the ALP (6 h) of the same molecule?
Answer: 1012 IU/L

Question: What about the ALT (6 h) of the same molecule?
Answer: 31.8 IU/L

Question: What about the AST (6 h) of the same molecule?
Answer: 64.8 IU/L

Question: And the BUN (6 h)?
Answer: 7.6 mg/dL

Question: What about the CRE (6 h) of the same molecule?
Answer: 0.4 mg/dL

Question: What about the Ca (6 h) of the same molecule?
Answer: 10.7 mg/dL

Question: And the Cl (6 h)?
Answer: 100.4 meq/L

Question: What about the DBIL (6 h) of the same molecule?
Answer: 0.074 mg/dL

Question: And the GLC (6 h)?
Answer: 191.8 mg/dL

Question: And the IP (6 h)?
Answer: 10.1 mg/dL

Question: And the K (6 h)?
Answer: 3.9 meq/L

Question: What about the LDH (6 h) of the same molecule?
Answer: 173.2 IU/L

Question: What about the Na (6 h) of the same molecule?
Answer: 139.6 meq/L

Question: What about the PL (6 h) of the same molecule?
Answer: 138.8 mg/dL

Question: What about the RALB (6 h) of the same molecule?
Answer: 3.3 g/dL

Question: What about the TBIL (6 h) of the same molecule?
Answer: 0.1 mg/dL

Question: And the TC (6 h)?
Answer: 71 mg/dL

Question: What about the TG (6 h) of the same molecule?
Answer: 68.8 mg/dL

Question: And the TP (6 h)?
Answer: 5.5 g/dL

Question: What about the gamma-GTP (6 h) of the same molecule?
Answer: 0.8 IU/L
